Test results reported in PubChem BioAssay AID256 (DTP/NCI, 2004).
Toxic doses and inconclusive results are not listed.

Tested on: CD2F1 mice, L1210 leukemia ip, survival T/C
Assay: NCI In Vivo Anticancer Drug Screen. Data for tumor model L1210 Leukemia (intraperitoneal) in CD2F1 (CDF1) mice
Details: higher = longer survival
Summary of the method: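 Antitumor effect is scored in animals hosting a serially transplanted tumor. Values compare compound-dosed animals against vehicle-only controls as a simple quotient.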

[1] = endpoint: mean survival time, dose: 12.5 mg/kg/injection, schedule: Q01DX009 (ip), vehicle: saline with Tween-80
[2] = endpoint: mean survival time, dose: 25.0 mg/kg/injection, schedule: Q01DX009 (ip), vehicle: saline with Tween-80
[3] = endpoint: mean survival time, dose: 50.0 mg/kg/injection, schedule: Q01DX009 (ip), vehicle: saline with Tween-80
[4] = endpoint: mean survival time, dose: 100.0 mg/kg/injection, schedule: Q04DX003 (ip), vehicle: saline with Tween-80

CC(C)[C@]12O[C@H]1[C@@H]1O[C@]13[C@]1(O[C@H]1C[C@H]1C4=C(C(=O)OC4)[C@@H](O)C[C@@]13C)[C@@H]2O was tested, and the T/C (endpoint: mean survival time, dose: 0.8 micrograms/kg/injection, schedule: Q01DX009 (ip), vehicle: saline + alcohol) was 94 % of control, the T/C (endpoint: mean survival time, dose: 1.6 micrograms/kg/injection, schedule: Q01DX009 (ip), vehicle: saline + alcohol) was 92 % of control and the T/C (endpoint: mean survival time, dose: 3.1 micrograms/kg/injection, schedule: Q01DX009 (ip), vehicle: saline + alcohol) was 96 % of control. For the same compound, the T/C (endpoint: mean survival time, dose: 6.3 micrograms/kg/injection, schedule: Q01DX009 (ip), vehicle: saline + alcohol) was 92 % of control, the T/C (endpoint: mean survival time, dose: 12.5 micrograms/kg/injection, schedule: Q01DX009 (ip), vehicle: saline + alcohol) was 89 % of control and the T/C (endpoint: mean survival time, dose: 25.0 micrograms/kg/injection, schedule: Q01DX009 (ip), vehicle: saline + alcohol) was 93 % of control. The T/C (endpoint: mean survival time, dose: 32.0 micrograms/kg/injection, schedule: Q01DX009 (ip), vehicle: saline + alcohol) was 106 % of control, the T/C (endpoint: mean survival time, dose: 50.0 micrograms/kg/injection, schedule: Q01DX009 (ip), vehicle: saline + alcohol) was 107 % of control and the T/C (endpoint: mean survival time, dose: 63.0 micrograms/kg/injection, schedule: Q01DX009 (ip), vehicle: saline + alcohol) was 121 % of control. For the same compound, the T/C (endpoint: mean survival time, dose: 100.0 micrograms/kg/injection, schedule: Q01DX009 (ip), vehicle: saline + alcohol) was 115 % of control, the T/C (endpoint: mean survival time, dose: 200.0 micrograms/kg/injection, schedule: Q01DX009 (ip), vehicle: saline + alcohol) was 156 % of control and the T/C (endpoint: mean survival time, dose: 250.0 micrograms/kg/injection, schedule: Q01DX009 (ip), vehicle: saline + alcohol) was 188 % of control. The T/C (endpoint: mean survival time, dose: 400.0 micrograms/kg/injection, schedule: Q01DX009 (ip), vehicle: saline + alcohol) was 207 % of control, the T/C (endpoint: mean survival time, dose: 500.0 micrograms/kg/injection, schedule: Q01DX009 (ip), vehicle: saline + alcohol) was 93 % of control and the T/C (endpoint: median survival time, dose: 8.0 micrograms/kg/injection, schedule: Q03HX024 (ip), vehicle: saline + alcohol) was 111 % of control. For the same compound, the T/C (endpoint: median survival time, dose: 8.0 micrograms/kg/injection, schedule: Q03HX024 (ip), vehicle: saline) was 110 % of control, the T/C (endpoint: median survival time, dose: 16.0 micrograms/kg/injection, schedule: Q03HX016 (ip), vehicle: saline + alcohol) was 117 % of control and the T/C (endpoint: median survival time, dose: 30.0 micrograms/kg/injection, schedule: Q01DX009 (ip), vehicle: saline) was 109 % of control. For the same compound, the T/C (endpoint: median survival time, dose: 30.0 micrograms/kg/injection, schedule: Q01DX009 (sc), vehicle: saline) was 103 % of control, the T/C (endpoint: median survival time, dose: 31.2 micrograms/kg/injection, schedule: Q01DX009 (ip), vehicle: saline + alcohol) was 101 % of control and the T/C (endpoint: median survival time, dose: 31.2 micrograms/kg/injection, schedule: Q01DX009 (sc), vehicle: saline + alcohol) was 98 % of control. For the same compound, the T/C (endpoint: median survival time, dose: 31.2 micrograms/kg/injection, schedule: Q03HX024 (ip), vehicle: saline + alcohol) was 151 % of control, the T/C (endpoint: median survival time, dose: 60.0 micrograms/kg/injection, schedule: Q01DX009 (sc), vehicle: saline) was 102 % of control and the T/C (endpoint: median survival time, dose: 60.0 micrograms/kg/injection, schedule: Q03HX024 (ip), vehicle: saline) was 191 % of control. For the same compound, the T/C (endpoint: median survival time, dose: 62.0 micrograms/kg/injection, schedule: Q03HX008 (ip), vehicle: saline + alcohol) was 123 % of control, the T/C (endpoint: median survival time, dose: 62.5 micrograms/kg/injection, schedule: Q01DX009 (ip), vehicle: saline + alcohol) was 122 % of control and the T/C (endpoint: median survival time, dose: 62.5 micrograms/kg/injection, schedule: Q01DX009 (sc), vehicle: saline + alcohol) was 104 % of control. The T/C (endpoint: median survival time, dose: 62.5 micrograms/kg/injection, schedule: Q03HX016 (ip), vehicle: saline + alcohol) was 118 % of control, the T/C (endpoint: median survival time, dose: 62.5 micrograms/kg/injection, schedule: Q03HX024 (ip), vehicle: saline + alcohol) was 166 % of control and the T/C (endpoint: median survival time, dose: 62.5 micrograms/kg/injection, schedule: Q04DX003 (ip), vehicle: saline + alcohol) was 97 % of control. The T/C (endpoint: median survival time, dose: 125.0 micrograms/kg/injection, schedule: Q01DX009 (sc), vehicle: saline + alcohol) was 104 % of control, the T/C (endpoint: median survival time, dose: 125.0 micrograms/kg/injection, schedule: Q03HX008 (ip), vehicle: saline + alcohol) was 118 % of control and the T/C (endpoint: median survival time, dose: 125.0 micrograms/kg/injection, schedule: Q03HX016 (ip), vehicle: saline + alcohol) was 111 % of control. For the same compound, the T/C (endpoint: median survival time, dose: 125.0 micrograms/kg/injection, schedule: Q03HX024 (ip), vehicle: saline + alcohol) was 120 % of control, the T/C (endpoint: median survival time, dose: 125.0 micrograms/kg/injection, schedule: Q04DX003 (ip), vehicle: saline + alcohol) was 101 % of control and the T/C (endpoint: median survival time, dose: 125.0 micrograms/kg/injection, schedule: Q08DX002 (ip), vehicle: saline + alcohol) was 98 % of control. The T/C (endpoint: median survival time, dose: 130.0 micrograms/kg/injection, schedule: Q01DX009 (ip), vehicle: saline) was 151 % of control, the T/C (endpoint: median survival time, dose: 130.0 micrograms/kg/injection, schedule: Q01DX009 (sc), vehicle: saline) was 109 % of control and the T/C (endpoint: median survival time, dose: 250.0 micrograms/kg/injection, schedule: Q01DX001 (ip), vehicle: saline + alcohol) was 113 % of control. The T/C (endpoint: median survival time, dose: 250.0 micrograms/kg/injection, schedule: Q01DX001 (sc), vehicle: saline + alcohol) was 104 % of control, the T/C (endpoint: median survival time, dose: 250.0 micrograms/kg/injection, schedule: Q01DX009 (ip), vehicle: saline + alcohol) was 184 % of control and the T/C (endpoint: median survival time, dose: 250.0 micrograms/kg/injection, schedule: Q01DX009 (ip), vehicle: saline) was 203 % of control. The T/C (endpoint: median survival time, dose: 250.0 micrograms/kg/injection, schedule: Q01DX009 (sc), vehicle: saline) was 152 % of control, the T/C (endpoint: median survival time, dose: 250.0 micrograms/kg/injection, schedule: Q04DX003 (ip), vehicle: saline + alcohol) was 113 % of control and the T/C (endpoint: median survival time, dose: 250.0 micrograms/kg/injection, schedule: Q08DX002 (ip), vehicle: saline + alcohol) was 109 % of control. For the same compound, the T/C (endpoint: median survival time, dose: 500.0 micrograms/kg/injection, schedule: Q01DX001 (ip), vehicle: saline + alcohol) was 109 % of control, the T/C (endpoint: median survival time, dose: 500.0 micrograms/kg/injection, schedule: Q01DX001 (sc), vehicle: saline + alcohol) was 107 % of control and the T/C (endpoint: median survival time, dose: 500.0 micrograms/kg/injection, schedule: Q01DX009 (ip), vehicle: saline + alcohol) was 239 % of control. For the same compound, the T/C (endpoint: median survival time, dose: 500.0 micrograms/kg/injection, schedule: Q01DX009 (ip), vehicle: saline) was 255 % of control, the T/C (endpoint: median survival time, dose: 500.0 micrograms/kg/injection, schedule: Q01DX009 (sc), vehicle: saline + alcohol) was 193 % of control and the T/C (endpoint: median survival time, dose: 500.0 micrograms/kg/injection, schedule: Q01DX009 (sc), vehicle: saline) was 87 % of control. The T/C (endpoint: median survival time, dose: 500.0 micrograms/kg/injection, schedule: Q04DX003 (ip), vehicle: saline + alcohol) was 122 % of control, the T/C (endpoint: median survival time, dose: 500.0 micrograms/kg/injection, schedule: Q08DX002 (ip), vehicle: saline + alcohol) was 108 % of control and the T/C (endpoint: median survival time, dose: 1000.0 micrograms/kg/injection, schedule: Q01DX001 (ip), vehicle: saline + alcohol) was 109 % of control. The T/C (endpoint: median survival time, dose: 1000.0 micrograms/kg/injection, schedule: Q04DX003 (ip), vehicle: saline + alcohol) was 115 % of control and the T/C (endpoint: median survival time, dose: 1000.0 micrograms/kg/injection, schedule: Q08DX002 (ip), vehicle: saline + alcohol) was 97 % of control.
With O=c1c2ccsc2ncn1C1OC(CO)C(O)C1O (configuration not stated) the T/C [1] was 111 % of control, the T/C [2] was 111 % of control and the T/C [3] was 91 % of control.
For CN(C)CCSCC(OC(=O)c1ccccc1)c1ccccc1 (configuration not stated), the T/C [2] was 102 % of control, the T/C [3] was 98 % of control and the T/C (endpoint: mean survival time, dose: 100.0 mg/kg/injection, schedule: Q01DX009 (ip), vehicle: saline with Tween-80) was 100 % of control.
With C=CC(N)=O the T/C (endpoint: mean survival time, dose: 25.0 mg/kg/injection, schedule: Q01DX009 (ip), vehicle: saline) was 102 % of control, the T/C (endpoint: mean survival time, dose: 25.0 mg/kg/injection, schedule: Q04DX003 (ip), vehicle: saline) was 92 % of control and the T/C (endpoint: mean survival time, dose: 50.0 mg/kg/injection, schedule: Q01DX009 (ip), vehicle: saline) was 92 % of control. The T/C (endpoint: mean survival time, dose: 50.0 mg/kg/injection, schedule: Q04DX003 (ip), vehicle: saline) was 105 % of control and the T/C (endpoint: mean survival time, dose: 100.0 mg/kg/injection, schedule: Q04DX003 (ip), vehicle: saline) was 97 % of control.
Nc1nc2c(c(=O)[nH]1)N(C(=O)NCCCl)C(CNc1ccc(C(=O)NC(CCC(=O)O)C(=O)O)cc1)CN2 (configuration not stated) was tested, and the T/C (endpoint: mean survival time, dose: 100.0 mg/kg/injection, schedule: Q01DX001 (ip), vehicle: sodium bicarbonate) was 94 % of control, the T/C (endpoint: mean survival time, dose: 200.0 mg/kg/injection, schedule: Q01DX001 (ip), vehicle: sodium bicarbonate) was 100 % of control and the T/C (endpoint: mean survival time, dose: 400.0 mg/kg/injection, schedule: Q01DX001 (ip), vehicle: sodium bicarbonate) was 97 % of control.
CC(Cc1ccc2c(c1)OCO2)NCC(O)c1ccc(O)c(O)c1 (configuration not stated) was tested, and the T/C (endpoint: mean survival time, dose: 100.0 mg/kg/injection, schedule: Q01DX001 (ip), vehicle: saline) was 103 % of control and the T/C (endpoint: mean survival time, dose: 200.0 mg/kg/injection, schedule: Q01DX001 (ip), vehicle: saline) was 109 % of control.
With CC(C)(C)OC(=O)N1CCCC1C(=O)O (configuration not stated) the T/C [4] was 96 % of control, the T/C (endpoint: mean survival time, dose: 200.0 mg/kg/injection, schedule: Q04DX003 (ip), vehicle: saline with Tween-80) was 101 % of control and the T/C (endpoint: mean survival time, dose: 400.0 mg/kg/injection, schedule: Q04DX003 (ip), vehicle: saline with Tween-80) was 110 % of control.
c1ccc(-c2cc(-c3ccccc3)[o+]c(-c3ccccc3)c2)cc1 was tested, and the T/C (endpoint: mean survival time, dose: 3.13 mg/kg/injection, schedule: Q01DX009 (ip), vehicle: saline with Tween-80) was 100 % of control, the T/C (endpoint: mean survival time, dose: 3.13 mg/kg/injection, schedule: Q04DX003 (ip), vehicle: saline) was 101 % of control and the T/C (endpoint: mean survival time, dose: 6.25 mg/kg/injection, schedule: Q01DX009 (ip), vehicle: saline with Tween-80) was 100 % of control. The T/C (endpoint: mean survival time, dose: 6.25 mg/kg/injection, schedule: Q04DX003 (ip), vehicle: saline) was 98 % of control, the T/C [1] was 97 % of control and the T/C (endpoint: mean survival time, dose: 12.5 mg/kg/injection, schedule: Q04DX003 (ip), vehicle: saline) was 104 % of control. For the same compound, the T/C [4] was 95 % of control.
